From ChEMBL document CHEMBL5038635, “Discovery of Salidroside-Derivated Glycoside Analogues as Novel Angiogenesis Agents to Treat Diabetic Hind Limb Ischemia” (J Med Chem, 2022) come the findings set out here.

≈ marks a conversion by molar mass, not a printed value. Calls of active or inactive are those of the source. No cut-off for these calls is given here.

Data set [1] deals with Hypoxia-inducible factor 1-alpha (Mus musculus) (UniProt Q61221). Description: Inhibition of HIF-1alpha in mouse C2C12 cells transfected with PDGF-B driven firefly luciferase gene assessed as transcriptional activity pretreated with compound for 12 hr followed by hypoxic condition for 24 hrs by dual luciferase reporter gene assay. Format: cell-based. Conditions: time 36.0 hrs. On the technique in general: Reporter assays use an easily measured gene product as a stand-in for the process of interest.
Chain of Hypoxia-inducible factor 1-alpha (Mus musculus) (Q61221 whole entry): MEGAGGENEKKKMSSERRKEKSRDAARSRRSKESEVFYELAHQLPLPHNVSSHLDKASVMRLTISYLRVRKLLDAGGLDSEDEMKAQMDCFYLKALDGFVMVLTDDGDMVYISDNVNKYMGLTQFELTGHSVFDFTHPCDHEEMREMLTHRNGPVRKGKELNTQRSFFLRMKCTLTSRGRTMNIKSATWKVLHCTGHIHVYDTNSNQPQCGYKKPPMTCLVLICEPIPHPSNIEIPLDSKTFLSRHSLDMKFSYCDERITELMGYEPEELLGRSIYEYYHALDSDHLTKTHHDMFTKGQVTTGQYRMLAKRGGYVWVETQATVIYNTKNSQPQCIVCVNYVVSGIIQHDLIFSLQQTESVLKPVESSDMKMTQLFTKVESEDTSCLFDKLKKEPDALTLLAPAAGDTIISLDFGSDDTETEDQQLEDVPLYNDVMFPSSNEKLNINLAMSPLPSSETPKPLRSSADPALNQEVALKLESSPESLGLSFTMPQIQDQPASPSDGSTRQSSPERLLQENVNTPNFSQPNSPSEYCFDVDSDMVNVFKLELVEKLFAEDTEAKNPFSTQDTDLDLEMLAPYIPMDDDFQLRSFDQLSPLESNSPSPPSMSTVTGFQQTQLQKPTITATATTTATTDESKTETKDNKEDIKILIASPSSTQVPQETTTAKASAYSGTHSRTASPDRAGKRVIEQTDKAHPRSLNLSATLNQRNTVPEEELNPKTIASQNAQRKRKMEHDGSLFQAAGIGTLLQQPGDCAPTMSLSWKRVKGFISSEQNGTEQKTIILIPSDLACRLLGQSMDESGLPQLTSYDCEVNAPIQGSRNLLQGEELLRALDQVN

The nature of data set [2]: Efflux ratio of Apparent permeability across basolateral to apical side over apical to basolateral side in human Caco-2 cells.
Data set [3] in a line: Water solubility of the compound by HPLC analysis.
Data set [4] is described as follows: Dissociation constant, pKa of compound by UV-visible spectrometric method. Format: physicochemical.
Data set [5] can be described thus: Octanol/Water partition coefficient, log P of the compound by HPLC-UV analysis.
A short description of data set [6]: Permeability coefficient across apical to basolateral side in human Caco-2 cells by HPLC-UV analysis. For orientation: Caco-2 monolayers are a common model of the intestinal barrier.
Data set [7] in a line: Permeability coefficient across basolateral to apical side in human Caco-2 cells by HPLC-UV analysis.
The target of data set [8] is Hypoxia-inducible factor 1-alpha (Mus musculus) (UniProt Q61221). The data set can be described thus: Inhibition of HIF-1alpha in mouse C2C12 cells transfected with HRE-driven firefly luciferase gene assessed as fold change in transcriptional activity at 300 uM pretreated with compound for 12 hr followed by hypoxic condition for 24 hrs by dual luciferase reporter gene assay. The class given is cell-based. The following applies: time 36.0 hrs.

For data set [9], the system named is C2C12. The data set can be described thus: Angiogenic activity in mouse C2C12 cells assessed as accumulation HIF-1alpha protein expression at 300 uM by Western blot analysis. The class given is functional, cell-based.
Data set [10] relates to C2C12. The data set can be described thus: Angiogenic activity in mouse C2C12 cells assessed as accumulation PDGF-BB protein expression at 300 uM by Western blot analysis. Format: functional, cell-based. (In general: A western blot detects proteins with antibodies after separation by electrophoresis.)
Data set [11] concerns C2C12. Description: Angiogenic activity in mouse C2C12 cells assessed as accumulation VEGF-A protein expression at 300 uM by Western blot analysis. The class given is functional, cell-based.
In data set [12] the test system is C2C12. The data set can be described thus: Angiogenic activity in mouse C2C12 cells assessed as accumulation ANG1 protein expression at 300 uM by Western blot analysis. The class given is functional, cell-based.
Data set [13] concerns C2C12. The data set can be described thus: Angiogenic activity in mouse C2C12 cells assessed as reversal of hyperglycemia-induced reduction in total cell number at 7.5 uM measured after 36 hrs by EdU-incorporation assay. The class given is functional, cell-based.
For data set [14], the system named is C2C12. Description: Angiogenic activity in mouse C2C12 cells assessed as reversal of hyperglycemia-induced reduction in total cell number at 15 uM measured after 36 hrs by EdU-incorporation assay. Format: functional, cell-based.
Data set [15] concerns C2C12. The data set can be described thus: Angiogenic activity in mouse C2C12 cells assessed as reversal of hyperglycemia-induced reduction in total cell number at 30 uM measured after 24 hrs by EdU-incorporation assay. The class given is functional, cell-based.
Data set [16] concerns C2C12. The data set can be described thus: Angiogenic activity in mouse C2C12 cells assessed as reversal of hyperglycemia-induced reduction in total cell number at 100 uM measured after 36 hrs by EdU-incorporation assay. The class given is functional, cell-based.
In data set [17] the test system is C2C12. Description: Angiogenic activity in mouse C2C12 cells assessed as reversal of hyperglycemia-induced reduction in total cell number at 300 uM measured after 36 hrs by EdU-incorporation assay. The class given is functional, cell-based.
Data set [18] relates to C2C12. Description: Induction of proliferation of hyperglycemia-induced mouse C2C12 cell death assessed as increase in number of EdU-positive cells at 7.5 to 300 uM pretreated with compound under hyperglycemia condition for 12 hr followed by hypoxia for 24 hrs. The class given is functional, cell-based. Conditions: dose 7.5-300 µM, time 36.0 hrs.
The subject of data set [19] is C2C12. The data set can be described thus: Induction of proliferation of hyperglycemia-induced mouse C2C12 cell death assessed as increase in number of EdU-positive cells at 15 uM pretreated with compound under hyperglycemia condition for 12 hr followed by hypoxia for 24 hrs. Conditions: time 36.0 hrs. Format: functional, cell-based.
In data set [20] the test system is C2C12. Description: Induction of proliferation of hyperglycemia-induced mouse C2C12 cell apoptosis assessed as decrease in Annexin V/PI-positive cells at 15 uM pretreated with compound under hyperglycemia condition for 12 hr followed by hypoxia for 24 hrs. Format: functional, cell-based. The following applies: time 36.0 hrs.
Data set [21] concerns C2C12. Description: Induction of proliferation of hyperglycemia-induced mouse C2C12 cell apoptosis assessed as decrease in Annexin V/PI-positive cells at 30 uM pretreated with compound under hyperglycemia condition for 12 hr followed by hypoxia for 24 hrs. Format: functional, cell-based. The following applies: time 36.0 hrs.
For data set [22], the system named is C2C12. The data set can be described thus: Apoptotic rate in hyperglycemia-treated mouse C2C12 cells assessed as necrotic cells at 15 uM by AnnexinV-FITC/PI staining based flow cytometric analysis (reference value: 0.56 %). Format: functional.
For data set [23], the system named is C2C12. Description: Apoptotic rate in hyperglycemia-treated mouse C2C12 cells assessed as late apoptotic cells at 15 uM by AnnexinV-FITC/PI staining based flow cytometric analysis (reference value: 10.44 %). Format: functional.
Data set [24] concerns C2C12. The data set can be described thus: Apoptotic rate in hyperglycemia-treated mouse C2C12 cells assessed as early apoptotic cells at 15 uM by AnnexinV-FITC/PI staining based flow cytometric analysis (reference value: 7.10 %). The class given is functional.
Data set [25] concerns C2C12. Description: Apoptotic rate in hyperglycemia-treated mouse C2C12 cells assessed as viable cells at 15 uM by AnnexinV-FITC/PI staining based flow cytometric analysis (reference value: 81.90 %). The class given is functional. The following applies: read-out: Activity.
The subject of data set [26] is C2C12. The data set can be described thus: Apoptotic rate in hyperglycemia-treated mouse C2C12 cells assessed as necrotic cells at 30 uM by AnnexinV-FITC/PI staining based flow cytometric analysis (reference value: 0.56 %). The class given is functional.
The test system of data set [27] is C2C12. Description: Apoptotic rate in hyperglycemia-treated mouse C2C12 cells assessed as late apoptotic cells at 30 uM by AnnexinV-FITC/PI staining based flow cytometric analysis (reference value: 10.44 %). The class given is functional.
Data set [28] deals with C2C12. Description: Apoptotic rate in hyperglycemia-treated mouse C2C12 cells assessed as early apoptotic cells at 30 uM by AnnexinV-FITC/PI staining based flow cytometric analysis (reference value: 7.10 %). The class given is functional.
Data set [29] concerns C2C12. The data set can be described thus: Apoptotic rate in hyperglycemia-treated mouse C2C12 cells assessed as viable cells at 30 uM by AnnexinV-FITC/PI staining based flow cytometric analysis (reference value: 81.90 %). The class given is functional. The following applies: read-out: Activity.

Broadly, the efflux ratio is a quotient of directional permeabilities that is used to spot active efflux. What is called solubility is how much of the substance goes into solution per volume. Higher therefore signals a readily soluble substance. One may read the pKa as the negative logarithm of the acid dissociation constant. By logP is commonly meant a log measure of how a compound divides between an organic and an aqueous phase. The term Papp A→B denotes the apparent permeability from the apical to the basolateral side of a cell layer. A higher Papp A→B goes with fast passage. Broadly, the Papp B→A is how fast a substance crosses the layer from the basolateral side.

In the case of `OC[C@H]1O[C@@H](CCCc2ccc(O)cc2)[C@H](O)[C@@H](O)[C@@H]1O`, the inhibition entry in [1] is “inactive”.

With `OC[C@H]1O[C@@H](Oc2ccc(Cc3ccc(O)cc3)cc2)[C@H](O)[C@@H](O)[C@@H]1O`, in [2], the efflux ratio came to 1.09. Also, in data set [3], the solubility stood at 1640 µg/mL (≈ 4.53 mM). The pKa in data set [4] came to 10.4. The compound also came in with a logP in [5] of 0.076. This compound gave a Papp A→B in data set [6] of 1.3 ×10⁻⁶ cm/s. The Papp B→A in data set [7] was determined as 1.42 ×10⁻⁶ cm/s.

`COc1ccc(Cc2ccc(O[C@@H]3O[C@H](CO)[C@@H](O)[C@H](O)[C@H]3O)cc2)cc1`: the inhibition entry in data set [1], in [9], in [10], in data set [11] and in [12] was “Active” each time. In addition, in [2], the efflux ratio was 1.06. For the same compound, in [8], the fold change (FC) is 2.5. In data set [3], this compound came in with a solubility of 1320 µg/mL (≈ 3.51 mM). Besides, the pKa in data set [4] is over 14. In [5], this compound came in with a logP of 1.02. Further, the Papp A→B in data set [6] is 1.68 ×10⁻⁶ cm/s. This compound showed a Papp B→A in data set [7] of 1.78 ×10⁻⁶ cm/s. Also, the outcome in data set [13], in data set [18], in [20] and in data set [21] was inactive. Moreover, the outcome in data set [14], in [15], in data set [16], in data set [17] and in data set [19] was Active. In addition, the Activity in [22] is reported as 0.49%; in [23], 10.59%; in [24], 5.4%; in data set [26], 0.41%; in data set [27], 7.14%; in [28], 3.21%. The viability at 15 µM in data set [25] turned out to be 83.5%. Moreover, the viability at 30 µM in [29] stood at 89.2%.

For the compound `COc1ccc(-c2cccc(O[C@@H]3O[C@H](CO)[C@@H](O)[C@H](O)[C@H]3O)c2)cc1`, the inhibition entry in data set [1] is “Active”. Moreover, in [8], the fold change (FC) was found to be 2.5.

As for `OC[C@H]1O[C@@H](OCCc2ccc(F)cc2)[C@H](O)[C@@H](O)[C@@H]1O`, the inhibition result in data set [1] is “Active”. The fold change (FC) in [8] amounted to 1.47.

Consider `OC[C@H]1O[C@@H](OCC2(c3ccc(O)cc3)CCC2)[C@H](O)[C@@H](O)[C@@H]1O`, for which, in [1], the inhibition entry was “Active”. Also, in data set [8], the fold change (FC) was 1.63.

Consider `COc1ccc(C(C)(C)CO[C@@H]2O[C@H](CO)[C@@H](O)[C@H](O)[C@H]2O)cc1`, for which, in data set [1], the inhibition entry is “Active”.

For the compound `COc1ccc(-c2ccc(O[C@@H]3O[C@H](CO)[C@@H](O)[C@H](O)[C@H]3O)cc2)cc1`, the inhibition entry in data set [1] is “Active”. For the same compound, the fold change (FC) in [8] was found to be 2.5.

With `CC(C)(CO[C@@H]1O[C@H](CO)[C@@H](O)[C@H](O)[C@H]1O)c1ccc(O)cc1`, the fold change (FC) in data set [8] was found to be 1.73.

In data set [6], `O=S1(=O)OC(c2ccc(O)cc2)(c2ccc(O)cc2)c2ccccc21` [PHENOLSULFONPHTHALEIN] registered a Papp A→B of 0.35 ×10⁻⁶ cm/s.

As to `COc1ccc(CCO[C@@H]2O[C@H](CO)[C@@H](O)[C@H](O)[C@H]2O)cc1`, the inhibition entry in data set [1] was “Active”. For the same compound, the fold change (FC) in [8] turned out to be 1.69.

With `OC[C@H]1O[C@@H](OCCc2ccccc2)[C@H](O)[C@@H](O)[C@@H]1O`, the inhibition entry in data set [1] is “Active”. The fold change (FC) in data set [8] was determined as 1.76.

`OC[C@H]1O[C@@H](OCCCc2ccc(O)cc2)[C@H](O)[C@@H](O)[C@@H]1O`: in data set [8], the fold change (FC) was 1.52.

Regarding `COc1ccc(Cc2ccccc2O[C@@H]2O[C@H](CO)[C@@H](O)[C@H](O)[C@H]2O)cc1` [SERGLIFLOZIN A], the efflux ratio in data set [2] was 1.04. For the same compound, in [8], the fold change (FC) was 0.78. The compound further displayed a solubility in data set [3] of 6710 µg/mL (≈ 17.8 mM). Further, in data set [4], the pKa is over 14. This compound yielded a logP in [5] of 1.07. Also, the Papp A→B in data set [6] worked out at 1.75 ×10⁻⁶ cm/s. Besides, the Papp B→A in data set [7] worked out at 1.82 ×10⁻⁶ cm/s.

Turning to `C[C@H]1O[C@@H](O[C@H]2[C@@H](O)C[C@H](O[C@H]3[C@@H](O)C[C@H](O[C@H]4CC[C@@]5(C)[C@H](CC[C@@H]6[C@@H]5C[C@@H](O)[C@]5(C)[C@@H](C7=CC(=O)OC7)CC[C@]65O)C4)O[C@@H]3C)O[C@@H]2C)C[C@H](O)[C@@H]1O` [DIGOXIN], the efflux ratio in data set [2] came to 11.1. The Papp A→B in [6] was found to be 1.33 ×10⁻⁶ cm/s. In addition, the Papp B→A in [7] worked out at 14.7 ×10⁻⁶ cm/s.

Turning to `OC[C@H]1O[C@@H](Oc2ccc(Cc3ccc(O)c(O)c3)cc2)[C@H](O)[C@@H](O)[C@@H]1O`, the “HIF-1alpha inhibition call (active/inactive)” value in data set [8] is “Active”.
